In PubChem BioAssay AID256 (DTP/NCI, 2004):
Inconclusive results and toxic doses are left out. How the source made its calls: active means survival T/C of 150% or more; inactive means T/C below 125% in these data.

System: CD2F1 mice, L1210 leukemia ip, survival T/C
Test: NCI In Vivo Anticancer Drug Screen. Data for tumor model L1210 Leukemia (intraperitoneal) in CD2F1 (CDF1) mice
Settings: higher = longer survival
Method in brief: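 Activity against a transplanted murine tumor was judged by comparing the compound group with a vehicle group. The outcome in the treated animals was divided by that in the controls.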

[1] = endpoint: mean survival time, dose: 100.0 mg/kg/injection, schedule: Q01DX009 (ip), vehicle: saline with Tween-80
[2] = endpoint: mean survival time, dose: 100.0 mg/kg/injection, schedule: Q04DX003 (ip), vehicle: saline with Tween-80
[3] = endpoint: mean survival time, dose: 200.0 mg/kg/injection, schedule: Q04DX003 (ip), vehicle: saline with Tween-80
[4] = endpoint: mean survival time, dose: 400.0 mg/kg/injection, schedule: Q04DX003 (ip), vehicle: saline with Tween-80
[5] = endpoint: mean survival time, dose: 100.0 mg/kg/injection, schedule: Q04DX002 (ip), vehicle: saline with Tween-80
[6] = endpoint: mean survival time, dose: 200.0 mg/kg/injection, schedule: Q04DX002 (ip), vehicle: saline with Tween-80
[7] = endpoint: mean survival time, dose: 400.0 mg/kg/injection, schedule: Q04DX002 (ip), vehicle: saline with Tween-80
[8] = endpoint: mean survival time, dose: 200.0 mg/kg/injection, schedule: Q01DX009 (ip), vehicle: saline with Tween-80
[9] = endpoint: mean survival time, dose: 400.0 mg/kg/injection, schedule: Q01DX009 (ip), vehicle: saline with Tween-80
[10] = endpoint: mean survival time, dose: 75.0 mg/kg/injection, schedule: Q01DX001 (ip), vehicle: saline
[11] = endpoint: mean survival time, dose: 150.0 mg/kg/injection, schedule: Q01DX001 (ip), vehicle: saline
[12] = endpoint: mean survival time, dose: 300.0 mg/kg/injection, schedule: Q01DX001 (ip), vehicle: saline

Measured: T/C

O=C(Oc1ccccc1)c1ccccc1O
inactive: endpoint: mean survival time, dose: 25.0 mg/kg/injection, schedule: Q01DX009 (ip), vehicle: saline with Tween-80 105 % of control | endpoint: mean survival time, dose: 50.0 mg/kg/injection, schedule: Q01DX009 (ip), vehicle: saline with Tween-80 109 % of control | endpoint: mean survival time, dose: 100.0 mg/kg/injection, schedule: Q01DX001 (ip), vehicle: saline with Tween-80 101 % of control | [1] 105 % of control | endpoint: mean survival time, dose: 200.0 mg/kg/injection, schedule: Q01DX001 (ip), vehicle: saline with Tween-80 89 % of control | endpoint: mean survival time, dose: 400.0 mg/kg/injection, schedule: Q01DX001 (ip), vehicle: saline with Tween-80 95 % of control

CCOC(=O)C(C(C)=O)c1cc(NS(=O)(=O)c2ccccc2)ccc1O (stereo not drawn)
inactive: [2] 114 % of control | [3] 103 % of control | [4] 105 % of control

Nc1nc2c(ncn2-c2cccc(NC(=O)Nc3ccc(S(=O)(=O)F)cc3)c2)c(=O)[nH]1 (tested in a mixture with another compound)
inactive: [5] 94 % of control | [6] 105 % of control | [7] 86 % of control

CCOC(=O)C(C)(C(=O)OCC)n1cnc2c1c(=O)n(C)c(=O)n2C
inactive: endpoint: mean survival time, dose: 100.0 mg/kg/injection, schedule: Q01DX005 (ip), vehicle: distilled water + Tween-80 100 % of control | endpoint: mean survival time, dose: 200.0 mg/kg/injection, schedule: Q01DX005 (ip), vehicle: distilled water + Tween-80 102 % of control | endpoint: mean survival time, dose: 400.0 mg/kg/injection, schedule: Q01DX005 (ip), vehicle: distilled water + Tween-80 107 % of control

COC(=O)C(C(=O)OC)c1ccc(C)c(OC)c1
inactive: [1] 97 % of control | [2] 104 % of control | [8] 98 % of control | [3] 104 % of control | [9] 97 % of control | [4] 102 % of control

CNP1(=O)OC(c2ccccc2)=CCN1CCCl (stereo not drawn)
inactive: endpoint: median survival time, dose: 31.25 mg/kg/injection, schedule: Q01DX001 (ip), vehicle: distilled water + Tween-80 102 % of control | endpoint: median survival time, dose: 62.5 mg/kg/injection, schedule: Q01DX001 (ip), vehicle: distilled water + Tween-80 106 % of control | endpoint: median survival time, dose: 125.0 mg/kg/injection, schedule: Q01DX001 (ip), vehicle: distilled water + Tween-80 96 % of control | endpoint: median survival time, dose: 250.0 mg/kg/injection, schedule: Q01DX001 (ip), vehicle: distilled water + Tween-80 96 % of control

O=c1cc(C(F)(F)F)[nH]c2ccc(F)cc12
inactive: endpoint: mean survival time, dose: 5.0 mg/kg/injection, schedule: Q01DX009 (ip), vehicle: saline with Tween-80 101 % of control | endpoint: mean survival time, dose: 10.0 mg/kg/injection, schedule: Q01DX009 (ip), vehicle: saline with Tween-80 100 % of control | endpoint: mean survival time, dose: 20.0 mg/kg/injection, schedule: Q01DX009 (ip), vehicle: saline with Tween-80 96 % of control

Clc1c(Cl)c(Cl)c(CSCc2c(Cl)c(Cl)c(Cl)c(Cl)c2Cl)c(Cl)c1Cl
inactive: [1] 93 % of control | [2] 91 % of control | [8] 96 % of control | [3] 96 % of control | [9] 94 % of control | [4] 90 % of control

CCN(CC)CCCC(C)Nc1nnc2c(=O)n(C)c(=O)n(C)c2n1 (stereo not drawn)
inactive: [10] 95 % of control | [11] 93 % of control | [12] 87 % of control

N#CC(C#N)=C/C=C/c1cccc([N+](=O)[O-])c1
inactive: endpoint: mean survival time, dose: 3.12 mg/kg/injection, schedule: Q01DX009 (ip), vehicle: Klucel (hydroxypropylcellulose) (HPC) 101 % of control | endpoint: mean survival time, dose: 6.25 mg/kg/injection, schedule: Q01DX009 (ip), vehicle: Klucel (hydroxypropylcellulose) (HPC) 109 % of control | endpoint: mean survival time, dose: 12.5 mg/kg/injection, schedule: Q01DX009 (ip), vehicle: Klucel (hydroxypropylcellulose) (HPC) 104 % of control

CCOC(=S)S
inactive: endpoint: mean survival time, dose: 100.0 mg/kg/injection, schedule: Q01DX009 (ip), vehicle: saline sonified 103 % of control | endpoint: mean survival time, dose: 100.0 mg/kg/injection, schedule: Q04DX003 (ip), vehicle: saline 96 % of control | endpoint: mean survival time, dose: 200.0 mg/kg/injection, schedule: Q01DX009 (ip), vehicle: saline sonified 97 % of control | endpoint: mean survival time, dose: 400.0 mg/kg/injection, schedule: Q04DX003 (ip), vehicle: saline 104 % of control

Cc1cc2nc(N)n(C3OC(CO)C(O)C3O)c2cc1C (stereo not drawn)
inactive: [10] 108 % of control | [11] 105 % of control | [12] 103 % of control

COc1cc(C2=N/C(=C\c3ccc(C(C)C)cc3)C(=O)O2)cc(OC)c1OC
inactive: [5] 90 % of control | [6] 90 % of control | [7] 94 % of control

CC1SC(=S)NC1=O (stereo not drawn)
inactive: endpoint: mean survival time, dose: 100.0 mg/kg/injection, schedule: Q04DX003 (ip), vehicle: saline sonified 93 % of control | endpoint: mean survival time, dose: 200.0 mg/kg/injection, schedule: Q04DX003 (ip), vehicle: saline sonified 113 % of control | endpoint: mean survival time, dose: 400.0 mg/kg/injection, schedule: Q04DX003 (ip), vehicle: saline sonified 96 % of control
